# Measurements: patent US20230374087A1, “METHOD TO IMPROVE PROTEIN QUALITY CONTROL” (The Johns Hopkins University, priority 2020, published 2023)
# How the values were obtained:
# [1] = tested on: neonatal rat cardiomyocytes (NRCMs); experiment: LDH/MTT cytotoxicity assay after simulated ischemia (SI); conditions: for SI-induced cytotoxicity (LDH/MTT ratio): sildenafil 1 μM
# Protocol: After overnight culture, subsets of NRCMs were infected with adenovirus (AdV) containing a FLAG-tagged PDE5, FLAG control, Myc-tagged CHIP WT or K31A (provided by Dr. Cam Patterson), S20E or S20A (Welgen Inc., Worcester, MA). Forty-eight hours after infection, cells were exposed to either simulated ischemia (SI) or normal conditions. SI involved incubating cells in DMEM containing deoxyglucose (20 mM), NaCl (125 mM), KCl (8 mM), KH2PO4 (1.2 mM), MgSO4 (1.25 mM), CaCl2) (1.2 mM), NaHCO3(6.25 mM), sodium lactate (5 mM), and HEPES (20 mM) with a pH of 6.6. Cells were then placed in an incubator chamber (Billups-Rothenberg) with 95% nitrogen, 4% carbon dioxide, and 1% oxygen. Normoxic controls were incubated in DMEM supplemented with 10% FBS in air composed of 95% carbon dioxide and 5% oxygen. RNA or protein was harvested after 48 hours of SI. Cells were also treated with sildenafil (1 μM) or vehicle, or small interference RNA (siRNA, 100 pM) specific for rat Stub1 (Qiagen, Cat. #: SI01532251) or scrambled control provided 24 hours after plating and transfected with Xfect (Takara) per manufacturer protocol.
# Lactate dehydrogenase (LDH) leakage and (3-[4,5-dimethylthiazol-2-yl]-2,5-diphenyltetrazolium bromide) (MTT) were assessed in cultured cardiomyocytes and media after SI from the same culture dish. LDH was assayed by commercial assay (Roche) following manufacturer's protocol, read in 96 well microplates on a Spectramax M5 (Molecular Devices) at 490 nm absorbance. For MTT, cells were washed in phosphate-buffered saline, MTT (Sigma-Aldrich) working solution added to the culture dish, incubated at 37° C., solubilized with acidic isopropanol, transferred to a 96 well plate, and read at 570 nm with background subtraction at 650 nm on a Spectramax M5.
# CHIP pS20 = experiment: Immunoblot for phospho-S20 CHIP in myocytes; assay type: cell-based, rat; conditions: cardiomyocytes; cGMP or SIL; DT3 1 μM
# Protocol: Tissue and cultured cardiomyocytes were lysed in 1× lysis buffer (Cell Signaling Technology), protein concentration was measured by bicinchoninic acid assay (Pierce), and extracts were subjected to SDS-PAGE using Novex Tris-Glycine Gels (4-20% gradient gel, Life Technologies) or Mini-protean TGX Gels (4-20% gradient gel, Bio-Rad), transferred to nitrocellulose membranes, and probed with various primary antibodies (CHIP (#2080S), Hsc70 (#8444S), p-CHIP S20 (Custom antibody, AbMart Inc., Shanghai, China; Project: 25011-1), Myc (#2276S), GAPDH (#2118S), and α-tubulin (#3878S) (Cell Signaling) and ubiquitin antibody (#SAB4503053) from Sigma), and fluorescence-labeled secondary antibodies (Licor, #926-32211, 926-32210, 926-68023, or 926-68022). Gels were imaged (Odyssey, Licor) and band intensity quantified (Odyssey Software 3.1).
# Human CHIP peptide fragments containing amino acid residues 13-30 were incubated with cGMP/PKG and assayed by MS. […] Phosphorylation was also observed at neighboring S24 and S26, but only when a S20A CHIP mutant was used (FIG. 2D). This indicates the primary target for PKG on CHIP is at S20. A monoclonal phospho-antibody generated against the S20 site in CHIP was tested in vitro with recombinant PKG1α and CHIP, verifying a consistent phospho-S20-CHIP signal. Use of a CHIP-S20A mutant CHIP confirmed specificity (FIG. 2E).
# proteasome = experiment: Proteasome activity assay in NRCMs; assay type: cell-based, rat; conditions: control cells and cells subjected to SI
# Protocol: Proteasome peptidase activity assays were performed as described (22) with slight modification.
structure (smiles),measurement,setting,value
"CCCc1nn(C)c2c(=O)[nH]c(-c3cc(S(=O)(=O)N4CCN(C)CC4)ccc3OCC)nc12 [SIL, sildenafil]",SI-induced cytotoxicity (LDH/MTT ratio),[1]; NRCMs expressing CHIP (scrambled siRNA),reduced SI-induced cytotoxicity
same,cytotoxicity with SIL across CHIP forms,"[1]; NRCMs expressing WT, S20E or S20A CHIP, control and SI conditions",lowered cytotoxicity regardless of which CHIP protein was expressed
same,SI-induced cytotoxicity (LDH/MTT ratio),[1]; NRCMs lacking CHIP (CHIP-siRNA),this protective effect was lost
same,CHIP pS20 level,CHIP pS20,CHIP pS20 increased
same,proteasome activity,proteasome,augmented
